Legend:
[1] = tested on: BMP ligand (SMAD1/5/8-responsive promoter); assay: Cell based luciferase reporter assay (SMAD1/5/8), BMP4-stimulated HEK293_SMAD1/5/8 cells; conditions: Homo sapiens; BMP4 20 nM stimulated HEK293_SMAD1/5/8
[2] = tested on: Calu6 human xenograft lung cancer model; assay: Calu6 in vivo xenograft cancer model; parameters: species or system athymic nude mice
Method: Female athymic nude mice from Charles River weighing 22 to 26 grams were implanted subcutaneously in the flank with 1×10^7 cells in a 1:1 (v/v) mixture in matrigel. […] Tumor volumes and body weight were determined by electronic caliper every 2 to 3 days. Repeat measures analysis was utilized with log transformed data and the auto-regression (AR) method to determine the overall p-value for galunisertib growth curves relative to the vehicle control in both tumor models. […]

[3] = tested on: pSMAD in 13762 rat mammary carcinoma tumor; assay: 13762 rat tumor model, pSMAD in tumor tissue; assay type: in vivo, Fischer 344 rats; conditions: Table 4, read-out: IC50 of pSMAD (%CV)
Method: Fischer 344 rats from Taconic Farms weighing 150 to 160 grams were acclimatized for 1 week prior to study initiation and had ad libitum access to food. Rats were shaved in the implant area then given a subcutaneous flank injection of 5 × 10^6 13762 rat mammary carcinoma cells in a 1:1 (v/v) mixture with Matrigel in media. […] Tumor, PBMCs, and plasma were collected at 0.5, 1, 1.5, 2, 4, 8, 16, and 24 hours for further analysis.
For correlation of pSMAD modulation in 13762 rat mammary carcinoma tumors and PBMCs, data were normalized using an analysis of co-variance of log pSMAD versus log tSMAD and treatment group. The slope (b) from this analysis was used to normalize the pSMAD values using pSMAD/(tSMAD)^b. Percent inhibition was calculated by the following formula: 100-(y/x)*100 where y = normalized pSMAD value and x = mean normalized pSMAD in the vehicle control. Linear correlation was used to compare tumor and PBMC measurements. In addition, using a cutoff of 50%, a 2 × 2 contingency table analysis was performed using Fisher's exact test.

pSMAD in human PBMCs = tested on: pSMAD in human PBMCs; parameters: method as in PMID 17453744; conditions: cited from earlier work
[4] = parameters: method as in PMID 25424852; conditions: patients with glioblastoma; cited from earlier work
[5] = second line glioblastoma; cited from earlier work
[6] = patients with myelodysplastic syndrome; cited from earlier work
[7] = parameters: method as in earlier work; conditions: patients with pancreas cancer; cited from earlier work
in vivo = conditions: female, BALB/c, mouse, plasma, po, 25 mg/kg
Method: (§1) For in vivo measurement of tumor cell pSMAD activity, tumors were harvested from mice at the indicated time points post-treatment, snap frozen in liquid nitrogen, then pulverized in lysis buffer [EDTA 5 mM, EGTA 5 mM, sodium pyrophosphate 30 mM, sodium chloride 6.7 mM, sodium fluoride 50 mM, and 1% triton in water, pH 7.4 with protease and phosphatase inhibitors (Sigma, p8340, p5726, p0044) and sodium orthovanadate 2.5 mM]. Protein concentration was estimated with DC protein assay kit (BioRad).
(§2) Percent inhibition of normalized pSMAD2 levels was calculated by first determining the ratio of tSMAD to pSMAD values for the vehicle group. […] Percent inhibition for compound treated groups was determined relative to the minimum pSMAD inhibition of the vehicle group using the formula: [(100- (normalized pSMAD in the experimental treatment group/normalized pSMAD in the vehicle treated group)]. IC50 of pSMAD inhibition was calculated for the data using non-linear regression to fit the standard four parameter logistic model using GraphPad Prism 6.
(§3) Female athymic nu/nu mice or immune competent syngenic BALB/c mice (Charles River or Taconic Farms, respectively, 22 to 28 grams) were maintained in microisolator cages, received food and water ad libitum, and were quarantined for 1 week before experimental manipulation. Sub-confluent Calu6 human non-small cell lung cancer (NSCLC) cells were injected subcutaneously in the flank of nude mice (1x 10^7cells/per animal) in 0.2 mL of culture medium mixed with Matrigel (BD Biosciences, 1:1 v/v). EMT6-LM2 murine triple negative breast cancer tumor cells (5 × 10^5 cells/per animal in the absence of matrigel) were implanted on the flank of BALB/c mice. EMT6-LM2 cells were generated from parental EMT6 cells which were passaged twice from spontaneous lung metastases (LM) following subcutaneous growth. When the tumor volume reached ~250 mm^3, mice were randomized and separated into treatment groups.
(§4) Tumors and plasma were collected 2 hours post dosage for analysis of pSMAD and compound levels.
(§5) Tumors and plasma were collected at the indicated time points (0.5, 1, 1.5, 2, 4, 8, and 16 hours) for analysis of pSMAD and compound levels.
(§6) Percent target inhibition was calculated as described above then was modeled as a function of either dose or plasma concentration.

[8] = rats; cited from earlier work
[9] = tested on: CEREP diversity panel, 65 targets; assay: CEREP diversity panel; conditions: at 10 μM, duplicate; data not shown
TGFβRII = TGFβRII (Homo sapiens, UniProt P37173); assay: Autophosphorylation kinase assay
Sequence of TGFβRII (P37173 23-567): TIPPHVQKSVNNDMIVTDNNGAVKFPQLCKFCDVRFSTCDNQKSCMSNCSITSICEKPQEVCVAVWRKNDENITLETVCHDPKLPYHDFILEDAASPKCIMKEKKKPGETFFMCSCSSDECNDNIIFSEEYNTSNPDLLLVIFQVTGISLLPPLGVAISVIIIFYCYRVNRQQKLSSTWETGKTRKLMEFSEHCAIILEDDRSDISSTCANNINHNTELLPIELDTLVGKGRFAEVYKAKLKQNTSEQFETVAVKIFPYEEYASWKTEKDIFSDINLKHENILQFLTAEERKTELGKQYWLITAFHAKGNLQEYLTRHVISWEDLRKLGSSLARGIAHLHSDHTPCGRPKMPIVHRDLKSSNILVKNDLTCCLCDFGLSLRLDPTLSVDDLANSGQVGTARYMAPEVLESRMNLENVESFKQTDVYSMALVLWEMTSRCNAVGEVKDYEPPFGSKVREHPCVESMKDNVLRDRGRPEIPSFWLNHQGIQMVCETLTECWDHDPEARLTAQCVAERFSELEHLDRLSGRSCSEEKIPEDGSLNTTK

U87MG xenograft tumors = assay: U87MG glioblastoma xenograft tumor model; conditions: galunisertib 25 mg/kg BID oral; lomustine (CCNU) 30 mg/kg single intraperitoneal dose; alone or combined
Method: Five million U87MG glioblastoma cells, obtained from ATCC (Manassas, VA), were injected subcutaneously in the flank of 8- to 9-week old, female, athymic nude mice (Harlan, Indianapolis, IN) in a 1:1 mixture of 1x PBS and matrigel (Becton Dickinson, Bedford, MA). Mice were monitored daily for palpable tumors. […] The tumor volumes were recorded at regular intervals following treatment.

Method for pSMAD in Calu6 tumors: as §1, §2, §3, §4, §5, §6

## Cc1cccc(-c2nn3c(c2-c2ccnc4ccc(C(N)=O)cc24)CCC3)n1.O [galunisertib, 4-[2-(6-methylpyridin-2-yl)-5,6-dihydro-4H-pyrrolo[1,2-b]pyrazol-3-yl]quinoline-6-carboxamide monohydrate]
[1]
  IC50: > 10 µM
[2]; 75 mg/kg twice daily oral gavage, 500 mm^3 crossing time, p = 0.034
  tumor growth delay: 8.3 ± 2.6 days
[2]; 75 mg/kg twice daily, data not shown
  body weight: No body weight loss
[3]
  IC50: 0.719 µM
pSMAD in Calu6 tumors; Calu6, at 30 minutes
  pSMAD inhibition at maximum plasma exposure: ~ 70%
pSMAD in Calu6 tumors; Calu6, single oral dose, tumors 2 hours post dosage
  TED50, total effective dose to inhibit 50% pSMAD: 15.6 mg/kg
pSMAD in Calu6 tumors; Calu6 time course, single oral dose
  maximum plasma exposure: up to 6 μM
pSMAD in human PBMCs
  pSMAD in human PBMCs ex vivo: inhibit pSMAD
[4]
  clinical activity, phase I: promising activity
[5]
  clinical outcome versus lomustine, phase II: failed to show improvement over lomustine
[6]
  clinical activity, phase II: clinical activity
[7]
  clinical outcome versus gemcitabine, phase II: superiority over gemcitabine
In vivo
  Tmax: 30 min
[8]
  adverse effects at high doses: associated with adverse effects
[9]
  inhibition against all 65 targets: < 25%
TGFβRII
  IC50: 2 µM
U87MG xenograft tumors
  anti-tumor effect (tumor volume): modest anti-tumor effect
